PMC6153800, “Structure-Based Drug Design and Characterization of Sulfonyl-Piperazine Benzothiazinone Inhibitors of DprE1 from Mycobacterium tuberculosis” (Antimicrobial Agents and Chemotherapy, 2018)
Values after ≈ are worked out from the molar mass of the structure shown. Like-named read-outs stand apart in the source and are kept apart here.

Tests used:
[1] = system: M. tuberculosis H37Rv; test: microbe, parasite or virus in culture; type: cell-based
[2] = Water solubility, shake flask method; type: physicochemical; details: for solubility at 3 days: 25 °C, water, thermodynamic from solid
Protocol: Water solubility measurements were performed using the shake flask method ([28]). Approximately 1 ml of water was added to 1 mg of compound in an Eppendorf tube, followed by incubation for 3 days at 25°C with shaking at 800 rpm. Suspensions were centrifuged at 16,100 × g for 10 min, and the supernatant was filtered using 0.22-μm-pore size filters. Filtrates were injected onto a high-performance liquid chromatography (HPLC) column (Dionex), and the amount of compound was quantified using a calibration curve.

[3] = in vitro; details: for microsomal CLint at 1 μg/ml: microsomes, pH 7.4; for Microsomal stability / clearance (in words), human: human microsomes; for Microsomal stability / clearance (in words), mouse: mouse microsomes
Protocol: The intrinsic clearance (CLint) of compounds was measured in both mouse and human liver microsomes. Briefly, 100 μg of mouse (CD-1) or human liver microsomes (both from Invitrogen) were mixed in 0.1 M phosphate buffer (pH 7.4) containing 0.01 μl of compound dissolved in dimethyl sulfoxide (DMSO) at 10 mg/ml in a final volume of 50 μl. In parallel, an NADPH-regenerating system (Promega) was prepared in 0.1 M phosphate buffer (pH 7.4). […] After 0, 5, 15, 30, and 60 min, the reactions were terminated by transferring […] into 100 μl of acetonitrile and placing the mixture on ice for 30 min for full protein precipitation. […] After 0 and 60 min, the reactions were terminated, prepared and analyzed as previously described.

[4] = system: HepG2 cells; details: for Cytotoxicity (in words) / TD50 / Concentration of mild cytotoxicity: HepG2 cells; for TD50: 3 days; for Selective index: ratio TD50 (HepG2) to MIC99 (H37Rv)
[5] = system: M. tuberculosis H37Rv; test: Murine model of chronic TB; type: in vivo, Mycobacterium tuberculosis; details: BALB/cByJ mice, 50 mg/kg by gavage 5 days a week for 4 weeks
[6] = Mycobacterium tuberculosis, H37RV, REMA, 7H9 broth, 6 days + 24 h resazurin, read-out: MIC99 H37Rv
[7] = Mycobacterium tuberculosis, H37Rv, read-out: MIC

Compound | MIC [1, 6] [µg/mL] | melting point [°C] | MIC99 ([1]; Mycobacterium tuberculosis, H37RV) [nM] | Times less soluble in water than 11626095, 11626092 and 11626091 [2] | solubility at 3 days [2] [µg/mL] | microsomal CLint at 1 μg/ml ([3]; CD-1, mouse) [µL/min/mg] | Microsomal stability / clearance (in words), human [3] | microsomal CLint at 1 μg/ml ([3]; human) [µL/min/mg] | Microsomal stability / clearance (in words), mouse [3] | Cytotoxicity (in words) [4] | TD50 [4] [µg/mL] | Fold less active than MCZ (MIC99 relative to MCZ) ([1]; H37Rv) [fold] | Bacterial burden in lungs lower than untreated control [5] [log10 CFU] | Bacterial burden in spleens lower than untreated control [5] [log10 CFU] | Concentration of mild cytotoxicity [4] | Selective index [4] | MIC [1, 7] [µg/mL] | MIC ([1]; H37Rv) [µg/mL]
O=c1nc(N2CCN(S(=O)(=O)c3cc(Cl)c(Cl)s3)CC2)sc2c([N+](=O)[O-])cc(C(F)(F)F)cc12 [compound 11326122] | 0.8 | 265 to 267 |  |  |  |  |  |  |  |  |  |  |  |  |  |  |  | 
O=c1nc(N2CCN(S(=O)(=O)c3ccc(C(F)(F)F)cc3)CC2)sc2c([N+](=O)[O-])cc(C(F)(F)F)cc12 [compound 11326123] | 0.1 | 222 to 225 |  |  |  |  |  |  |  |  |  |  |  |  |  |  |  | 
CCCCc1ccc(S(=O)(=O)N2CCN(c3nc(=O)c4cc(C(F)(F)F)cc([N+](=O)[O-])c4s3)CC2)cc1 [compound 11326124] | 800 | 226 to 229 |  |  |  |  |  |  |  |  |  |  |  |  |  |  |  | 
CCC(C)(C)c1ccc(S(=O)(=O)N2CCN(c3nc(=O)c4cc(C(F)(F)F)cc([N+](=O)[O-])c4s3)CC2)cc1 [compound 11326125] | 0.5 | 231 to 233 |  |  |  |  |  |  |  |  |  |  |  |  |  |  |  | 
Cc1oncc1S(=O)(=O)N1CCN(c2nc(=O)c3cc(C(F)(F)F)cc([N+](=O)[O-])c3s2)CC1 [compound 11326126] | 1.6 | 281 to 283 |  |  |  |  |  |  |  |  |  |  |  |  |  |  |  | 
O=c1nc(N2CCN(S(=O)(=O)C3CCCCC3)CC2)sc2c([N+](=O)[O-])cc(C(F)(F)F)cc12 [compound 11326127] | 0.006 |  | 6 (≈ 3.04 ng/mL) | at least 100 times | < 0.01 | 19 | medium clearances | 21.5 | medium clearances | not cytotoxic | >100 |  |  |  |  |  |  | 
COC(=O)c1sccc1S(=O)(=O)N1CCN(c2nc(=O)c3cc(C(F)(F)F)cc([N+](=O)[O-])c3s2)CC1 [compound 11326128] | 0.1 | 127 to 129 |  |  |  |  |  |  |  |  |  |  |  |  |  |  |  | 
O=c1nc(N2CCN(S(=O)(=O)C3CC3)CC2)sc2c([N+](=O)[O-])cc(C(F)(F)F)cc12 [compound 11626091] | 0.003 | 201 to 204 |  |  | 8.6 ± 3.8 (≈ 18.5 µM) | 2.7 | lowest clearances | 9.7 | lowest clearances |  | 8.10 | 15 | 0.46 | 1.03 | around 10 μg/ml | 2,700 |  | 
CCS(=O)(=O)N1CCN(c2nc(=O)c3cc(C(F)(F)F)cc([N+](=O)[O-])c3s2)CC1 [compound 11626092] | 0.003 | 204 to 207 |  |  | 10.7 ± 4.6 (≈ 23.6 µM) | 3 | lowest clearances | 1.4 | lowest clearances |  | 8.90 |  |  |  | around 10 μg/ml | 2,967 | 0.003 (≈ 0.00663 µM) | 
CCCCS(=O)(=O)N1CCN(c2nc(=O)c3cc(C(F)(F)F)cc([N+](=O)[O-])c3s2)CC1 [compound 11626093] | 0.001 | 215 to 219 |  | at least 100 times | 0.105 ± 0.05 (≈ 0.219 µM) | 42 | metabolically stable | 6.4 | highly unstable | not cytotoxic | >100 | 5 |  |  |  | >100,000 |  | 1 (≈ 2.08 µM)
O=c1nc(N2CCN(S(=O)(=O)c3cccc4cnccc34)CC2)sc2c([N+](=O)[O-])cc(C(F)(F)F)cc12 [compound 11626094] | 0.01 | 243 to 245 |  | at least 100 times | 0.088 ± 0.04 (≈ 0.16 µM) | 24 | highly unstable | 277 |  | not cytotoxic | 100.00 |  |  |  |  | 10,000 |  | 
CS(=O)(=O)N1CCN(c2nc(=O)c3cc(C(F)(F)F)cc([N+](=O)[O-])c3s2)CC1 [compound 11626095] | 0.02 | 186 to 188 |  |  | 10.6 ± 1.8 (≈ 24.2 µM) | 0.9 | lowest clearances | 1 | lowest clearances |  | 7.80 |  |  |  | around 10 μg/ml | 390 | 0.02 (≈ 0.0456 µM) | 
